Measured values published in patent publication US20060035995A1, “Photosensitive amine generator, photocurable composition and photoreactive adhesive composition” (Sekisui Chemical Co., Ltd., priority 2000, published 2006).

Experiments:
[1] = radiation at 254 nm; cited from earlier work
[2] = Solubility in tetrahydrofuran; format: physicochemical; details: 1 part by weight of compound in 100 parts by weight of tetrahydrofuran
Description: (§1) Evaluation was made by three ranks, i.e., by 0 if the composition dissolved completely and provided a clear mixture, by ▴ if it almost dissolved but provided a slightly cloudy mixture and by X if it little dissolved.

[3] = Compatibility with the epoxy resin (EPICOAT 828); format: physicochemical; details: 1 part by weight of compound in 100 parts by weight of epoxy resin (EPICOAT 828)
Description: as §1

[4] = Compatibility with the urethane prepolymer (1); format: physicochemical; details: 1 part by weight of compound in 100 parts by weight of urethane prepolymer (1)
Description: as §1

Solubility Epoxy Resin [3] | Solubility Prepolymer [4] | SMILES | quantum yield [1] | Solubility THF [2]
 |  | NC(=O)OCc1ccccc1[N+](=O)[O-] [o-nitrobenzyl carbamate] | about 0.13 | 
 |  | CC(=NOC(=O)NCCCCCCNC(=O)ON=C(C)c1ccccc1)c1ccccc1 [Example 1] |  | ◯
◯ | ◯ | C=C(C)C(=O)OCCNC(=O)ON=C(C)c1ccccc1 [Example 4] |  | ◯
